Assays:
[1] = Aroma extract dilution analysis (AEDA) by GC-O of aroma isolates of fresh mango cultivars; settings: GC-O on FFAP column; for FD factor PS: Praya Sowoy (PS) mango cultivar aroma isolate; for FD factor H: Haden (H) mango cultivar aroma isolate, highest dilution at which the aroma was detectable; for FD factor M: Malindi (M) mango cultivar aroma isolate; for FD factor WA: White Alfonso (WA) mango cultivar aroma isolate; for FD factor RS: Royal Special (RS) mango cultivar aroma isolate
From the text: The presently disclosed subject matter was developed in part by analytical analyses on regional mangos performed to avoid overlooking any key compounds that can greatly influence the natural flavorings. To overcome the lack of distinct cultivar flavors available for true-fruit mango tastes, the presently disclosed subject matter has created a flavor system using aroma extract dilution analysis (AEDA) on fresh fruit from various mango cultivars. In addition, sensory experiments with the flavor compositions of the formulas given together with omission experiments were used to determine the relative importance of some of the components in the manufactured flavorings. A Flavor Dilution (FD)-chromatogram of the odorants was obtained for the odorants perceived in aroma extracts of various mango samples. FD-factors reflect the highest dilution at which a substance is still smelled and these are typically determined by AEDA.
AEDA is known as a powerful screening method used for the detection of aroma compounds, which combines a quantitative gas chromatography olfactometry (GCO) procedure for determining the potency of odorants in food. Using FD values from the AEDA tests, a base flavor system using compounds found in all the cultivars was created. Next, cultivars were characterized by their differences and cultivar components were designed by combining compounds identified as contributing to the distinct differences. The base and cultivar flavors were confirmed by creating a flavor system and testing the flavor system in a model confectionery product.
Volatile compounds are extracted from the fruit samples. For example, compounds are extracted with diethyl ether and an aroma isolate was prepared via high vacuum distillation. The aroma isolate was then serially diluted to a range of dilutions from 2 to 1,024. The various dilutions are then analyzed by GCO.
The FD factor data depict the highest dilution at which an odorant is still detectable by GCO. FD factors are relative measurements. The measurement is the ratio of the initial concentration to its most dilute extraction. Such measurements are proportional to a compounds odor activity value (OAV), which is the ratio of the concentration to an odor threshold in the air.
Fresh ripe mangos were peeled, the seed was removed, and the flesh was cut into small 4 cm^3 sections. The sections were immediately frozen in liquid nitrogen, ground into a fine powder with a laboratory mill and sequentially extracted with freshly distilled diethyl ether (1×100 mL; 1×50 mL) on an autoshaker at room temperature for 10 minutes. After centrifugation (5000 rpm for 5 minutes), the supernatants were combined and the residue was discarded. The organic layer was then separated in a separatory funnel and the aqueous layer was discarded. The ether extract (total volume: 150 mL) was then subjected to high-vacuum distillation using the SAFE technique (Engel, W.; Bahr, W.; Schieberle, P., Solvent assisted flavour evaporation—a new and versatile technique for the careful and direct isolation of aroma compounds from complex food matrices. European Food Research and Technology 1999, 209, 237-241.). The distillation apparatus was thermostated at 40° C. and kept under high vacuum (10-5 mbar). The sample was dropped into the extraction flask of the apparatus over 40 minutes, after which the extraction was continued for an additional 30 minutes. At the completion of the extraction time, the vacuum was broken and the collection flask was removed. The sample was thawed at room temperature and dried over anhydrous sodium sulfate. The sample was then concentrated to approximately 2 ml using a Vigreux column (50×1 cm) held at 50° C. and finally concentrated (total volume: 200 uL) under a gentle stream of nitrogen. The aroma quality of the isolate was then evaluated to ensure that it closely matched the odor quality of the fresh ripe mango flesh.
An Agilent 6890 series GC system was used for GC-O analysis. […]

[2] = Odor threshold levels (recognition and detection) of odorants; settings: Tables 1-5, relative to the other odorants of the same group
From the text: As used herein, “threshold level” relates to an amount at which a flavor is detected or recognized. A detection level is the point at which a taste is detected as compared to a control such as water. A recognition level is the point at which a specific taste is recognizable.
Additional measurements can be used as a proxy for potency, whereby similar calculations can be configured to prepare a base blend. For example, threshold levels can be used to determine a reference point for potency. For example, threshold levels include detection levels, where a taste is detected in comparison to a control, for example water. Threshold levels also include recognition levels whereby a taste is specifically recognized, which is generally a higher level than a mere detection level. The threshold levels achieve an equivalent organoleptic effect whereby a specific target is either detectable or recognized.
By way of example, the following table provides representative threshold levels in ppb for both detection and recognition levels.
The specific odorant listed has been categorized one of the highest potency odorants within the noted class. As such, the highest potency relates to the littlest amount to be used in the composition. Therefore, relative potencies are then computed by orders of magnitude as detailed in the above Table. Additional threshold levels are discussed below in Example 4.
The following Example provides odor thresholds of weakest and strongest odorants with the different aroma groups, as well as alternative compounds for the first tier of odorants. These odorants are representative in defining the unique sensory attributes of the aroma isolates of the different cultivars.

[3] = cited from earlier work; for recognition (ppb) / detection (ppb): Table 8, representative threshold level; for recognition (ppb): point at which a specific taste is recognizable; for detection (ppb): point at which a taste is detected compared to a control such as water; for recog. ppb: Table 21, odor thresholds from literature (footnotes a-g)

Structure (SMILES) | FD factor PS [1] | recog. ppb [3] [ppb] | FD factor H [1] | FD factor WA [1] | further results
CC/C=C\CC/C=C/C=O [(E,Z)-2,6-nonadienal] | 128 | 0.0091 | – | – | potency within odorant group (footnote *) [2]: *Most potent; recognition (ppb) [3]: 0.0091 ppb; detection (ppb) [3]: 0.0045 ppb
CCCC1CCCC(=O)O1 (stereo not drawn) [δ-octalactone] | – | – | 512 | 128 | FD factor M [1]: 128
COC1=C(C)OC(C)C1=O (stereo not drawn) [4-methoxy-2,5-dimethyl-3(2H)-furanone] | – | 3400 | – | – | FD factor RS [1]: 128
CCCCCC/C=C/C=O [(E)-2-nonenal] | 128 | 0.4 | – | – | –
CCOC(=O)C(C)C [ethyl-2-methypropanoate] | – | 0.22 | 512 | – | –
CCOC(=O)CC(C)C [ethyl-3-methylbutanoate] | – | 0.11 | 2048 | – | –
CSCCC=O [3-(methylthio)-propanal] | – | – | 512 | 32 | –
CCOC(=O)C(C)CC (stereo not drawn) [ethyl-2-methybutanoate] | – | 0.063 | 512 | – | potency within odorant group (footnote *) [2]: *Most potent; recognition (ppb) [3]: 0.063 ppb; detection (ppb) [3]: 0.013 ppb
CCCCCC(=O)C(C)C(C)=O (stereo not drawn) [3-methyl-2,4-nonandione] | 128 | – | – | – | –
CCc1ncc(C)nc1CC [2,3-diethyl-5 methyl pyrazine] | – | – | – | – | FD factor RS [1]: 128
CC/C=C/CC=O [(E)-3-hexenal] | 512 | 160 | – | – | –
CCCC(=O)O [butanoic acid] | 128 | 7700 | – | – | –
CCCCC1CCC(=O)O1 (stereo not drawn) [γ-octalactone] | 128 | 24 | 512 | 512 | FD factor M [1]: 512; FD factor RS [1]: 512; potency within odorant group (footnote *) [2]: *Most potent; recognition (ppb) [3]: 24 ppb; detection (ppb) [3]: 6.5 ppb
CCCC(=O)OCC [ethyl butanoate] | 128 | 2.4 | 2048 | 128 | FD factor RS [1]: 32
C=C/C=C/C=C\CCCCC [1-(E,Z)-3,5-undecatriene] | – | 0.003 | 512 | 512 | potency within odorant group (footnote *) [2]: *Most potent; recognition (ppb) [3]: 0.003 ppb
C=CC(=C)CCC=C(C)C [myrcene] | – | 4.9 | – | 128 | FD factor M [1]: 128; recognition (ppb) [3]: 4.9 ppb; detection (ppb) [3]: 1.2 ppb

Structure (SMILES) | FD factor PS [1] | recog. ppb [3] [ppb] | FD factor H [1] | FD factor WA [1] | further results
CC1=C(O)C(=O)OC1C (stereo not drawn) [3-hydroxy-4,5-dimethyl-2(5H)-furanone] | – | 1.1 | – | – | potency within odorant group (footnote *) [2]: *Most potent; recognition (ppb) [3]: 1.1 ppb; detection (ppb) [3]: 0.49 ppb
C=C/C(C)=C\CC=C(C)C [β-(Z)-ocimene] | – | 34 | – | 512 | –
CC(=O)C(C)=O [2,3-butandione] | 32 | 2.9 | – | – | –
CC(=O)CC(C)(C)S [4-mercapto-4-methyl-2-pentanone] | – | 0.0001 | – | – | recognition (ppb) [3]: 0.0001 ppb
C=CC=CC=CCC=CCC [1,3,5,8-undecatetraene] | – | – | – | 128 | FD factor M [1]: 512; FD factor RS [1]: 512
C=C/C(C)=C/CC=C(C)C [β-(E)-ocimene] | – | 34 | – | 128 | –
CC1=CCC(C(C)(C)S)CC1 (stereo not drawn) [1-p-menthene-8-thiol] | – | 0.0001 | – | – | –
CC(=O)/C=C/C1=C(C)CCCC1(C)C [β-ionone] | – | 8.4 | – | 512 | FD factor M [1]: 32; FD factor RS [1]: 512; recognition (ppb) [3]: 8.4 ppb; detection (ppb) [3]: 3.5 ppb
CC(=O)C1=NCCC1 [2-acetyl-1-pyrroline] | 128 | – | 512 | – | FD factor M [1]: 512
CC(=O)CCC1=C(C)CCCC1(C)C [dihydro-β-ionone] | – | – | – | – | FD factor RS [1]: 128
OCCc1ccccc1 [2-phenylethanol] | – | – | 128 | – | –
CCCCCCC1CCC(=O)O1 (stereo not drawn) [γ-decalactone] | – | 2.6 | – | – | –
CC1=C(O)C(=O)C(C)O1 (stereo not drawn) [4-hydroxy-2,5-dimethyl-3(2H)-furanone] | 2048 | 160 | 2048 | 2048 | FD factor M [1]: 2048; FD factor RS [1]: 2048
CC/C=C\CC=O [(Z)-3-hexenal] | 128 | 0.21 | – | – | –
CCCCCC1CCCC(=O)O1 (stereo not drawn) [δ-decalactone] | – | 51 | – | – | –
